Among the data in patent US9751869B2, “LXR modulators” (BRISTOL-MYERS SQUIBB COMPANY, priority 2013, dated 2017) are EC50 and Emax values, retold here.

SMILES strings stand for the structures.

The target in this experiment is T1, LXRβ (Homo sapiens, UniProt P55055).
T1 construct: Co-transfection expression plasmids, comprising full-length LXRα (pCMX-h LXRα or LXRβ (pCMX-hLXRβ)); expressed in transfected cells; host or cells: CV-1 African green monkey kidney cells, transient transfection with pCMX-hLXRβ
T1 sequence (P55055 1-460): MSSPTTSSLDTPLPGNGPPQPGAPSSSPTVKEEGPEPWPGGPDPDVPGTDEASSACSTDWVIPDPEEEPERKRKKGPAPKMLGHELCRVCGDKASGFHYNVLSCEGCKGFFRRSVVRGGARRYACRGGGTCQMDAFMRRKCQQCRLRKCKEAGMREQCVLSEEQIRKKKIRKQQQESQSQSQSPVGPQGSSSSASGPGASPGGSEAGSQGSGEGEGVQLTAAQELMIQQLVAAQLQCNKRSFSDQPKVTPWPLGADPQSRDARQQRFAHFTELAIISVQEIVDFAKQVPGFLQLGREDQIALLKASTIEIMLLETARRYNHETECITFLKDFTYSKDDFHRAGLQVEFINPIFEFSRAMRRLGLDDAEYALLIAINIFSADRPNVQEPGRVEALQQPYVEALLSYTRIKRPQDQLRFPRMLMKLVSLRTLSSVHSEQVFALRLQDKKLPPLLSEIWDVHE
T1 sequence (P19793 1-462 partner): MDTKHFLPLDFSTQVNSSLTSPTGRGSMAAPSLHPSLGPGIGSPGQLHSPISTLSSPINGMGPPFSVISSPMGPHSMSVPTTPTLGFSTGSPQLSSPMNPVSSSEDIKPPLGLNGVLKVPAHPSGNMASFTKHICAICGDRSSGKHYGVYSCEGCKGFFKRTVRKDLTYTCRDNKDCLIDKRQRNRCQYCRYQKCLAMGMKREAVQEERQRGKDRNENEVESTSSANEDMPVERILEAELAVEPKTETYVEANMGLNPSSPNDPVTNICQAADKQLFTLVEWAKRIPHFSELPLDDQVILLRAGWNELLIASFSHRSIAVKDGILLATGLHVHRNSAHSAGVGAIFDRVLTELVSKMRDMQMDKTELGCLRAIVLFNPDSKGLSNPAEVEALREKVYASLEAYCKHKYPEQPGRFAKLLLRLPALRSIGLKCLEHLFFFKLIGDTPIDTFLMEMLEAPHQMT
Put plainly: LXR/LXRE co-transfection assay (luciferase reporter) in CV-1 cells, LXRβ. The class given is cell-based. The settings on record: for EC50: CV-1 cells transfected with pCMX-hLXRβ and LXREx1-Tk-Luciferase, 20 hours incubation, read-out: LXRbeta agonism EC50; for Emax: CV-1 cells, relative to maximum response of high control N-(3-((4-fluorophenyl)-(naphthalene-2-sulfonyl)amino)propyl)-2,2-dimethylpropionamide, read-out: LXRbeta % EFFICACY
The essentials:
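Luciferase read-out after 20 h compound treatment at 37 °C of CV-1 cells carrying transfected hLXRβ plus one-copy LXRE reporter, endogenous RXR partnering. Sigmoidal fit of 10-point half-log curves (4 wells each) gave EC50; % efficacy versus maximal response of the propionamide reference agonist.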
A general note: Reporter assays use an easily measured gene product as a stand-in for the process of interest.

One may read the EC50 as the concentration at which the effect is half-maximal. Regarding `Cc1nc(-c2ccc(C(F)(F)F)cc2)c(-c2cc(-c3cc(F)c(CO)c(S(C)(=O)=O)c3)ccc2-n2cc(Cl)c(C(F)(F)F)n2)o1` [Example 438, (4′-(4-chloro-3-(trifluoromethyl)-1H-pyrazol-1-yl)-3-fluoro-3′-(2-methyl-4-(4-(trifluoromethyl)phenyl)oxazol-5-yl)-5-(methylsulfonyl)-[1,1′-biphenyl]-4-yl)methanol], the EC50 was found to be 128 nM and the Emax was determined as 70%.

Turning to `Cc1nc(-c2ccc(OC(F)(F)F)cc2)c(-c2cc(-c3cc(F)c(CO)c(S(C)(=O)=O)c3)ccc2-n2cc(C)c(C(F)(F)F)n2)o1` [Example 439, (3-fluoro-4′-(4-methyl-3-(trifluoromethyl)-1H-pyrazol-1-yl)-3′-(2-methyl-4-(4-(trifluoromethoxy)phenyl)oxazol-5-yl)-5-(methylsulfonyl)-[1,1′-biphenyl]-4-yl)methanol], the EC50 is 38 nM and the Emax was determined as 64%.

For `Cc1nc(-c2ccc(OC(F)(F)F)cc2)c(-c2cc(-c3cccc(S(C)(=O)=O)c3)ccc2-n2cc(C)c(C(F)(F)F)n2)o1` [Example 440], the EC50 came out at 51 nM and the Emax came out at 62%.

For the compound `Cc1nc(-c2ccc(OC(F)(F)F)cc2)c(-c2cc(-c3cccc(S(C)(=O)=O)c3)ccc2-n2cc(Cl)c(C(C)(C)O)n2)o1` [Example 441, 2-(4-chloro-1-(3-(2-methyl-4-(4-(trifluoromethoxy)phenyl)oxazol-5-yl)-3′-(methylsulfonyl)-[1,1′-biphenyl]-4-yl)-1H-pyrazol-3-yl) propan-2-ol], the EC50 stood at 176 nM and the Emax came to 31%.

Consider `Cc1nc(-c2ccc(OC(F)(F)F)cc2)c(-c2cc(-c3cccc(S(C)(=O)=O)c3)ccc2-n2ccc(C(C)(F)F)n2)o1` [Example 442, 5-(4-(3-(1,1-difluoroethyl)-1H-pyrazol-1-yl)-3′-(methylsulfonyl)-[1,1′-biphenyl]-3-yl)-2-methyl-4-(4-(trifluoromethoxy)phenyl)oxazole], for which the EC50 was determined as 52 nM and the Emax stood at 60%.

Consider `Cc1nc(-c2ccc(OC(F)(F)F)cc2)c(-c2cc(-c3cc(F)c(CO)c(S(C)(=O)=O)c3)ccc2-n2cc(Cl)c(C(C)(C)O)n2)o1` [Example 443], for which the EC50 came to 22 nM and the Emax was found to be 35%.

Regarding `CNS(=O)(=O)c1cccc(-c2ccc(-n3cc(Cl)c(C(F)(F)F)n3)c(-c3oc(C)nc3-c3ccc(OC(F)(F)F)cc3)c2)c1` [Example 444, 4′-(4-chloro-3-(trifluoromethyl)-1H-pyrazol-1-yl)-N-methyl-3′-(2-methyl-4-(4-(trifluoromethoxy)phenyl)oxazol-5-yl)-[1,1′-biphenyl]-3-sulfonamide], the EC50 worked out at 76 nM and the Emax turned out to be 63%.

As to `CNS(=O)(=O)c1cccc(-c2ccc(-n3cc(Cl)c(C(F)(F)F)n3)c(-c3oc(C)nc3-c3cnc(OC)nc3)c2)c1` [Example 445, 4′-(4-chloro-3-(trifluoromethyl)-1H-pyrazol-1-yl)-3′-(4-(2-methoxypyrimidin-5-yl)-2-methyloxazol-5-yl)-N-methyl-[1,1′-biphenyl]-3-sulfonamide], the EC50 stood at 170 nM and the Emax worked out at 63%.

As for `Cc1nc(-c2ccc(OC(F)(F)F)cc2)c(-c2cc(-c3cc(F)c(CO)c(S(C)(=O)=O)c3)ccc2-n2cc(C#N)c(C3CC3)n2)o1` [Example 446, 3-cyclopropyl-1-(3′-fluoro-4′-(hydroxymethyl)-3-(2-methyl-4-(4-(trifluoromethoxy)phenyl)oxazol-5-yl)-5′-(methylsulfonyl)-[1,1′-biphenyl]-4-yl)-1H-pyrazole-4-carbonitrile], the EC50 was 30 nM and the Emax came out at 28%.

Turning to `Cc1nc(-c2ccc(OC(F)(F)F)cc2)c(-c2cc(-c3cccc(S(C)(=O)=O)c3)ccc2-n2cc(C#N)c(C3CC3)n2)o1` [Example 447, 3-cyclopropyl-1-(3-(2-methyl-4-(4-(trifluoromethoxy)phenyl)oxazol-5-yl)-3′-(methylsulfonyl)-[1,1′-biphenyl]-4-yl)-1H-pyrazole-4-carbonitrile], the EC50 turned out to be 116 nM and the Emax came out at 28%.

For the compound `Cc1nc(-c2ccc(OC(F)(F)F)cc2)c(-c2cc(-c3cc(F)c(CO)c(S(C)(=O)=O)c3)ccc2-n2cc(C(N)=O)c(C3CC3)n2)o1` [Example 448, 3-cyclopropyl-1-(3′-fluoro-4′-(hydroxymethyl)-3-(2-methyl-4-(4-(trifluoromethoxy)phenyl)oxazol-5-yl)-5′-(methylsulfonyl)-[1,1′-biphenyl]-4-yl)-1H-pyrazole-4-carboxamide], the EC50 was 279 nM and the Emax was 30%.
